Reference: patent US20240316207A1, “SHP2 INHIBITOR, PHARMACEUTICAL COMPOSITION COMPRISING SAME AND APPLICATION THEREOF” (BEIJING TIDE PHARMACEUTICAQL CO., LTD., priority 2021, published 2024)

Biological target: T1, SHP2 (Homo sapiens, UniProt Q06124)
T1 construct: endogenous in cells; host or cells: MV411 (MV4-11) leukemia cells
T1 sequence (Q06124 1-593): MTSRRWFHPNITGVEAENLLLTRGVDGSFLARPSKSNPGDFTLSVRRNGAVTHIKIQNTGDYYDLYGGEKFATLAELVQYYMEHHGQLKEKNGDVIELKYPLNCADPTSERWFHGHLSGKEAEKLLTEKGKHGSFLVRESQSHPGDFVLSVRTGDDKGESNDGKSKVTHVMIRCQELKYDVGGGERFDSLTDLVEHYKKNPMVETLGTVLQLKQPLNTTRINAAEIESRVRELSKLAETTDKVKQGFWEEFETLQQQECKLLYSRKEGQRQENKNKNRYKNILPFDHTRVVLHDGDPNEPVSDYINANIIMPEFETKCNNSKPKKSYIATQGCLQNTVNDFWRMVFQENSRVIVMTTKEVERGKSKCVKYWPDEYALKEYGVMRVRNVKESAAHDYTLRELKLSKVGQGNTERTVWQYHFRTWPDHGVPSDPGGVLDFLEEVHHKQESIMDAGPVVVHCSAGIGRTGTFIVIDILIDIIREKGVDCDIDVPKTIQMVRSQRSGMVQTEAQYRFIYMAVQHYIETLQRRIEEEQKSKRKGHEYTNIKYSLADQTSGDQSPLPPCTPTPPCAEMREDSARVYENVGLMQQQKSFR
Assay: SHP2 degradation in MV411 cells (Western blot, SHP-2 antibody)
Type: cell-based
Conditions: MV 411 cells, 24 hours with compound, SHP2 protein level by Western blot
Source text: Reagent: complete DMEM medium, Gibco products. Fetal bovine serum, manufactured by ThermoFisher. Trypsin, manufactured by ThermoFisher. The SHP-2 antibody is produced by CST.
Cell line, MV 411, the blast cells of patients with bi-phenotypic B-myelomonocytic leukemia, was established by Rovera.
Measuring method: took the cells growing in the logarithmic phase, collected and suspended the cells in DMEM containing 10% fetal calf serum, gently blowed and beated the cells into single cell suspension by using a pipette, and counted the living cells under a microscope. […] Then cultured for 24 hours. All cells were collected and washed with PBS, lysed with RIPA lysate and collected into a 1.7 ml tube. […] metal bath for 5 minutes to fully denature the protein. 100V constant voltage electrophoresis after Western condensation and loading, stopped when bromophenol blue band reached the end point. The cellulose acetate membrane is transferred by a wet method, 45 minutes at a constant flow of 300-500 mA, 5% BSA is used for blocking for 1-2 hours at room temperature. Primary antibody of 1:500-1:8000 were used for incubation at 25° C. for 40 minutes and then washed three times. Secondary antibody was used for incubation for 15-40 min at room temperature. The proteins were detected using ultrasensitive ECL luminophores such as Enlight, using an X-Ray film automatic developing machine. See the statistical tables below, and FIGS. 1 and 2 for test results.
Effective Concentration of the Compound of the Invention in the Cell Line for Inhibiting SHP2

SMILES | DC50 [nM]
CCOc1cc(O)c(C(=O)/C=C/c2ccc(N3CCN(CCOCCOCCOc4cccc5c4C(=O)N(C4CCC(=O)N(COC(=O)C(C)(C)C)C4=O)C5=O)CC3)cc2Cl)cc1CN1CCCC(n2c(=O)[nH]c3ccccc32)C1 (stereo not shown) [TDC. 2020] | 13
CCOc1cc(O)c(C(=O)/C=C/c2ccc(N3CCN(CCOCCOCCOc4cccc5c4C(=O)N(C4CCC(=O)NC4=O)C5=O)CC3)cc2Cl)cc1CN1CCCC(n2c(=O)[nH]c3ccccc32)C1 (stereo not shown) [TDC.2009] | 16
CCOc1cc(O)c(C(=O)/C=C/c2ccc(NCCOCCOCCNc3cccc4c3C(=O)N(C3CCC(=O)NC3=O)C4=O)cc2Cl)cc1CN1CCC[C@H]1CO (stereo partly shown) [TDC.2007] | 125
CCOc1cc(O)c(C/C=C/c2ccc(N3CCN(C(=O)CCCCCC(=O)Nc4cccc5c4C(=O)N(C4CCC(=O)NC4=O)C5=O)CC3)cc2Cl)cc1CN1CCCC(n2c(=O)[nH]c3ccccc32)C1 (stereo not shown) [TDC.2004] | 120
CCOc1cc(O)c(C(=O)/C=C/c2ccc(NCCOCCOCCNc3cccc4c3C(=O)N(C3CCC(=O)N(C(C)OC(=O)CC)C3=O)C4=O)cc2Cl)cc1CN1CCN(C)CC1 (stereo not shown) [TDC.2016] | 356
CCOc1cc(O)c(C(=O)/C=C/c2ccc(NCCOCCOCCNc3cccc4c3C(=O)N(C3CCC(=O)NC3=O)C4=O)cc2Cl)cc1CN1CCOCC1 (stereo not shown) [TDC.2006] | 445
CCOc1cc(O)c(C(=O)/C=C/c2ccc(NCCOCCOCCCOCCNc3cccc4c3C(=O)N(C3CCC(=O)NC3=O)C4=O)cc2Cl)cc1CN1CCC=C(n2c(=O)[nH]c3ccccc32)C1 (stereo not shown) [TDC.2015] | 97
CCOc1cc(O)c(C(=O)/C=C/c2ccc(N3CCN(CCOCCOCCOCCNc4cccc5c4C(=O)N(C4CCC(=O)NC4=O)C5=O)CC3)cc2Cl)cc1CN1CCCC(n2c(=O)[nH]c3ccccc32)C1 (stereo not shown) [TDC.2014] | 102
CCOc1cc(O)c(C(=O)/C=C/c2ccc(NCCOCCOCCNc3cccc4c3C(=O)N(C3CCC(=O)NC3=O)C4=O)cc2Cl)cc1CN1CCNCC1 (stereo not shown) [TDC.2002] | 336
C=C/C(OCCOCCOCCN1CCN(c2ccc(/C=C/C(=O)c3cc(CN4CCC[C@H]4COC)c(OCC)cc3O)c(Cl)c2)CC1)=C1\C(=C)C(=O)N(C2CCC(=O)NC2=O)C1=O (stereo partly shown) [TDC.2013] | 203
CCOc1cc(O)c(C(=O)/C=C/c2ccc(NCCOCCOCCNc3cccc4c3C(=O)N(C3CCC(=O)NC3=O)C4=O)cc2Cl)cc1CN1CCN(C)CC1 (stereo not shown) [TDC.2005] | 321
CCOc1cc(O)c(C(=O)/C=C/c2ccc(N3CCN(CCOCCOCCOc4cccc5c4C(=O)N(C4CCC(=O)NC4=O)C5=O)CC3)cc2Cl)cc1CN1CCC[C@H]1C(N)=O (stereo partly shown) [TDC.2011] | 138
CCOc1cc(O)c(C/C=C/c2ccc(N3CCN(C(=O)CCCCCCC(=O)Nc4cccc5c4C(=O)N(C4CCC(=O)NC4=O)C5=O)CC3)cc2Cl)cc1CN1CCC=C(n2c(=O)[nH]c3ccccc32)C1 (stereo not shown) [TDC.2003] | 52
CCOc1cc(O)c(C(=O)/C=C/c2ccc(N3CCN(CCOCCOCCOc4cccc5c4C(=O)N(C4CCC(=O)NC4=O)C5=O)CC3)cc2Cl)cc1CN1CCC[C@@H]1CO (stereo partly shown) [TDC.2012] | 10
CCOc1cc(O)c(C(=O)/C=C/c2ccc(NCCOCCOCCOCCOc3cccc4c3C(=O)N(C3CCC(=O)NC3=O)C4=O)cc2Cl)cc1CN1CCC[C@H]1C(N)=O (stereo partly shown) [TDC.2018] | 142
CCOc1cc(O)c(C(=O)/C=C/c2ccc(NCCOCCOCCOCCNc3cccc4c3C(=O)N(C3CCC(=O)NC3=O)C4=O)cc2Cl)cc1CN1CCC[C@H]1C(N)=O (stereo partly shown) [TDC.2001] | 128
CCOc1cc(O)c(C(=O)/C=C/c2ccc(NCCOCCOCCNc3cccc4c3C(=O)N(C3CCC(=O)NC3=O)C4=O)cc2Cl)cc1CN1CCC[C@H]1COC (stereo partly shown) [TDC.2008] | 215
CCOc1cc(O)c(C(=O)/C=C/c2ccc(N3CCN(CCOCCOCCOc4cccc5c4C(=O)N(C4CCC(=O)NC4=O)C5=O)CC3)cc2Cl)cc1CN1CCC=C(n2c(=O)[nH]c3ccccc32)C1 (stereo not shown) [TDC.2010] | 81
CCOc1cc(O)c(C(=O)/C=C/c2ccc(NCCOCCOCCOc3cccc4c3C(=O)N(C3CCC(=O)NC3=O)C4=O)cc2Cl)cc1CN1CCC[C@H]1COC (stereo partly shown) [TDC.2017] | 183
